Measured values: patent US4382934A, “Isatin derivatives, processes for the preparation thereof and pharmaceutical composition comprising the same” (Fujisawa Pharmaceutical Co., Ltd., priority 1978, dated 1983)

Test system: anaphylactic asthma in guinea-pigs
Experiment: Antagonism to anaphylactic asthma in guinea-pigs
Format: in vivo, guinea-pig (male Hartley)
Conditions: 30 min before egg albumin aerosol; for Inhibitory effect of anaphylactic asthma in guinea-pig: survival more than 2 hours
Experimental: (1) Preparation of rabbit antiserum against egg albumin
Equal volumes of a saline solution of egg albumin (200 mg./ml.) and of Freund's Complete Ajuvant were mixed and emulsified. Each male New Zealand white strain rabbits, each weighing 2 to 2.5 kg., received an intramuscular injection of 0.5 ml. of the emulsion in the left and right thigh regions. One week later, they received an intradermal injection of 0.25 ml. of a saline solution of egg albumin (concentration: 20 mg./ml.) in the different four sites of the dorsal skin surface three times every other week. Blood samples were collected from the carotid artery one week after the last injection.
(2) Determination of Passive Cutaneous Anaphylaxis (PCA) titer
The level of anaphylactic anti-egg albumin antibodies in pools of sera were determined by passive cutaneous anaphylaxis (PCA) reactions using shaven Hartley strain test guinea-pigs.
Antiserum was serially diluted (two fold) in saline and 0.1 ml. of each antiserum dilution were injected intradermally into the dorsal skin surface of the test guinea-pigs. 24 Hours after intradermal sensitization,Egg albumin-specific PCA reactions were elicited by intravenous injection of 10 mg. of egg albumin in 1 ml. of 1% Evans blue dye dissolved in saline. Reactions were read and recorded as the highest dilution of serum evoking threshold PCA reactivity (5 mm diameter).
(3) Antagonism to anaphylactic asthma in guinea-pigs
Male Hartley stain guinea-pigs, weighing 305 to 400 g, were used. Animals were sensitized by an intravenous injection of rabbit antiserum against egg albumin (4000 PCA titer) with 0.5 ml./animal. After 24 hours, animals were placed individually in a plastic chamber of 5.3 liter volume. An aerosol of 5% egg albumin solution was sprayed in the chamber at a rate of 0.16 ml./min with a commercial nebulizer. The test compound was given to the animals orally 30 minutes before the challenge with the egg albumin solution. Each dose group consisted of ten animals. The inhibitory effect of the test compound was determined from the number of surviving animals more than 2 hours after spray of the antigen. The ED50 value (dose to be required 50% protection from death) was calculated according to Litchfield-Wilcoxon method.

In the case of `O=C1C(=O)N(CCCN2CCN(C(c3ccccc3)c3ccccc3)CC2)c2ccccc21` [1-[3-(4-Benzhydryl-1-piperazinyl)propyl]isatin], the “Inhibitory effect of anaphylactic asthma in guinea-pig” value (“Inhibitory effect” for short) (0.1 mg./kg. P.O.) is reported as 0%, the “Inhibitory effect” value (1.0 mg./kg. P.O.) is reported as 20% and the “Inhibitory effect” value (3.2 mg./kg. P.O.) is reported as 40%. For the same compound, the “Inhibitory effect” value (10.0 mg./kg. P.O.) was 80%, the “Inhibitory effect” value (32.0 mg./kg. P.O.) was 100% and the “Inhibitory effect” value (100.0 mg./kg. P.O.) was 100%. For the same compound, the ED50 (Cavia porcellus, po, 2 h, P.O., Litchfield-Wilcoxon method, read-out: ED50 (dose to be required 50% protection from death)) was 3.4 mg/kg.
